# Where a name gives a salt, the structure may show the parent alone. Read-outs that look alike come from different tables or passages of the source.
# Tests used:
# SARS-CoV-2 USA-WA1/2020 [1] = assay: microbe, parasite or virus in culture; format: cell-based; conditions: Vero E6 cells, MOI 0.025, two days, read-out: SARS-CoV-2 EC50
# [2] = tested on: subdomain IIa of the internal ribosome entry site (IRES) RNA of HCV; set-up: method as in earlier work; conditions: ref 6 (Table S1 list: Martín-Villamil et al. 2022); cited from earlier work
# SARS-CoV-2 = format: cell-based; conditions: 48 h post-infection
# SCoV2 USA-WA1/2020 = format: cell-based; conditions: 293T-ACE2, MOI 2, 8-h single cycle; added at +2 h relative to infection
# SCoV2 RNA elements = assay: ligand-based 1H NMR (1D, CPMG, wLOGSY), six RNA elements compared; format: binding, SARS-CoV-2; conditions: CSP, LB, CPMG and wLOGSY perturbations; 300 µM compound
# Description: We first used ligand-based ^1H NMR experiments to analyze the interaction of the selected compounds with each of the six RNA elements specified above, including one-dimensional, Carr–Purcell–Meiboom–Gill (CPMG) and waterLOGSY (wLOGSY) experiments. These assays detect changes in the ^1H signals of the ligand upon RNA association (Figure 4A), and have been successfully used to evaluate small-molecule binding to RNA motifs, including elements of the SCoV2 genome.
# Each ligand (at a concentration of 300 μM) was mixed with a smaller quantity of RNA in an aqueous solution containing 25 mM potassium phosphate (pH 6.2), 150 mM KCl, 3 mM MgCl2, and 10% D2O. RNA–ligand molar ratios of 1:50 and 1:100 were explored (with 6 and 3 μM RNA, respectively). […] The water signal was suppressed from one-dimensional experiments with a watergate sequence. The CPMG experiments were acquired with 100, 200, 300, and 400 ms relaxation delays before acquisition, and water suppression was achieved by presaturation. wLOGSY experiments employed a selective Gaussian 180° pulse at the water frequency and an NOE mixing time of 1.5 s and suppressed the water signal by excitation sculpting. All spectra were acquired in the absence and presence of RNA.
# All ligand signals were individually analyzed. For clomiphene citrate, the signals corresponding to cis and trans forms were identified by comparing the spectrum of clomiphene citrate with those of the individual stereoisomers. In CPMG experiments, the binding of the compounds to the different RNA sequences was quantified as 100 minus the percentage of ligand signal area in the +RNA CPMG spectrum relative to the corresponding signal area in the -RNA CPMG spectrum. In wLOGSY experiments, binding was quantified with the LOGSY factor, or % of ligand signal in the difference spectrum between the +RNA and –RNA wLOGSY spectra, relative to the corresponding signal in the one-dimensional -RNA reference spectrum. In one-dimensional experiments, line broadening (LB) was quantified as explained for CPMG spectra.
# 5_SL2+3 RNA = assay: ligand-based 1H NMR (1D, CPMG, wLOGSY); format: binding, SARS-CoV-2
# ATTL RNA = assay: ligand-based 1H NMR (1D, CPMG, wLOGSY); format: binding, SARS-CoV-2
# PRF RNA = assay: ligand-based 1H NMR (1D, CPMG, wLOGSY); format: binding, SARS-CoV-2
# ORF7b RNA = assay: ligand-based 1H NMR (1D, CPMG, wLOGSY); format: binding, SARS-CoV-2
# 3_SL1+2 RNA = format: binding
# 3_S2m RNA = assay: ligand-based 1H NMR (1D, CPMG, wLOGSY); format: binding, SARS-CoV-2
# [3] = tested on: subdomain IIB of the rev recognition element (RRE) of the HIV-1 genomic RNA; conditions: cited from earlier work
# SARS-CoV-2 USA-WA1/2020 [4] = assay: microbe, parasite or virus in culture; format: cell-based; conditions: 293T-ACE2 cells, MOI 0.25, two days, read-out: SARS-CoV-2 EC50
# Vero E6 cells = conditions: read-out: SARS-CoV-2 CC50, uninfected, MTT
# 293T-ACE2 cells = conditions: read-out: SARS-CoV-2 CC50, uninfected, MTT
# HIV-1 = conditions: cited from earlier work
# in vitro = conditions: African green monkey, uninfected Vero E6 cells
# [5] = Severe acute respiratory syndrome coronavirus 2, Vero C1008, 48 h
# [6] = average of aliphatic protons, RNA:ligand 1:100 (clomiphene) or 1:50 (trim, qz2)
# [7] = average of aromatic protons, RNA:ligand 1:100 (clomiphene) or 1:50 (trim, qz2)
# [8] = clomiphene citrate peak A, RNA:ligand 1:100
# [9] = clomiphene citrate peak B, RNA:ligand 1:100
# [10] = clomiphene citrate peak C, RNA:ligand 1:100
# [11] = clomiphene citrate peak D, RNA:ligand 1:100
# [12] = ref 1 (Table S1 list: Prado et al. 2016)
# [13] = ref 2 (Table S1 list: Prado et al. 2018)
# [14] = ref 4 (Table S1 list: Medina-Trillo et al. 2020)
compound,measurement,setting,value
CC(CNc1nc2c(cnn2-c2ccccc2)c(=O)[nH]1)Cn1ccnc1 (stereo not shown) [gn1],EC50,SARS-CoV-2 USA-WA1/2020 [1]; [5],> 20 µM
same,Previous target RNA binding,[2],yes
"CCN(CC)CCOc1ccc(C(=C(Cl)c2ccccc2)c2ccccc2)cc1 [Clomiphene citrate, reference compound]",viral titers in supernatants (TCID50),SARS-CoV-2,below the limit of detection
same,nucleocapsid protein expression,SCoV2 USA-WA1/2020,strongly inhibited
same,RNA binding preference,SCoV2 RNA elements,bound significantly to all of the RNA sequences examined
same,CPMG variation,5_SL2+3 RNA; [6],23.3%
same,LB,5_SL2+3 RNA; [6],0.62%
same,LB,5_SL2+3 RNA; [7],-1.34%
same,CPMG variation,5_SL2+3 RNA; [8],36.0%
same,LB,5_SL2+3 RNA; [8],23.4%
same,CPMG variation,5_SL2+3 RNA; [9],26.7%
same,LB,5_SL2+3 RNA; [9],13.7%
same,CPMG variation,5_SL2+3 RNA; [10],14.9%
same,LB,5_SL2+3 RNA; [10],-17.3%
same,CPMG variation,5_SL2+3 RNA; [11],29.0%
same,LB,5_SL2+3 RNA; [11],-1.34%
same,CPMG variation,ATTL RNA; [6],38.5%
same,LB,ATTL RNA; [6],35.1%
same,LB,ATTL RNA; [7],15.9%
same,CPMG variation,ATTL RNA; [8],34.3%
same,LB,ATTL RNA; [8],25.5%
same,CPMG variation,ATTL RNA; [9],38.3%
same,LB,ATTL RNA; [9],67.0%
same,CPMG variation,ATTL RNA; [10],40.8%
same,LB,ATTL RNA; [10],23.9%
same,CPMG variation,ATTL RNA; [11],41.4%
same,LB,ATTL RNA; [11],15.9%
same,LB,PRF RNA; [6],68.7%
same,LB,PRF RNA; [7],81.7%
same,CPMG variation,PRF RNA; [8],96.5%
same,LB,PRF RNA; [8],73.2%
same,CPMG variation,PRF RNA; [9],93.9%
same,LB,PRF RNA; [9],82.5%
same,CPMG variation,PRF RNA; [10],77.1%
same,LB,PRF RNA; [10],59.6%
same,CPMG variation,PRF RNA; [11],99.0%
same,LB,PRF RNA; [11],81.7%
same,LB,ORF7b RNA; [6],68.0%
same,LB,ORF7b RNA; [7],67.6%
same,CPMG variation,ORF7b RNA; [8],96.3%
same,LB,ORF7b RNA; [8],61.5%
same,CPMG variation,ORF7b RNA; [9],96.5%
same,LB,ORF7b RNA; [9],67.2%
same,CPMG variation,ORF7b RNA; [10],92.9%
same,LB,ORF7b RNA; [10],71.7%
same,CPMG variation,ORF7b RNA; [11],97.5%
same,LB,ORF7b RNA; [11],67.6%
same,CPMG variation,3_SL1+2 RNA; [6],94.5%
same,LB,3_SL1+2 RNA; [6],70.7%
same,LB,3_SL1+2 RNA; [7],61.4%
same,CPMG variation,3_SL1+2 RNA; [8],99.3%
same,LB,3_SL1+2 RNA; [8],59.6%
same,CPMG variation,3_SL1+2 RNA; [9],97.0%
same,LB,3_SL1+2 RNA; [9],89.5%
same,CPMG variation,3_SL1+2 RNA; [10],91.5%
same,LB,3_SL1+2 RNA; [10],66.9%
same,CPMG variation,3_SL1+2 RNA; [11],99.1%
same,LB,3_SL1+2 RNA; [11],61.4%
same,CPMG variation,3_S2m RNA; [6],39.5%
same,LB,3_S2m RNA; [6],44.9%
same,CPMG variation,3_S2m RNA; [7],40.4%
same,LB,3_S2m RNA; [7],37.4%
same,CPMG variation,3_S2m RNA; [8],37.1%
same,LB,3_S2m RNA; [8],57.5%
same,CPMG variation,3_S2m RNA; [9],38.8%
same,LB,3_S2m RNA; [9],51.5%
same,CPMG variation,3_S2m RNA; [10],40.8%
same,LB,3_S2m RNA; [10],35.3%
same,CPMG variation,3_S2m RNA; [11],40.4%
same,LB,3_S2m RNA; [11],37.4%
same,Previous target RNA binding,[3]; [12],yes
N=c1c(S(=O)(=O)c2ccc(Cl)cc2)cc2c(=O)n3ccccc3nc2n1C1CCCCC1 [2b],EC50,SARS-CoV-2 USA-WA1/2020 [4],> 10 µM
same,CC50,Vero E6 cells,> 20 µM
same,CC50,293T-ACE2 cells,> 20 µM
same,Previous target virus activity,HIV-1; [13],yes
same,Previous target virus activity,HIV-1; [14],no
same,Previous target RNA binding,[3]; [13],yes
same,Previous target RNA binding,[3]; [14],yes
CCN(CC)CCCC(C)Nc1ccc2ccccc2n1 (stereo not shown) [qn1],EC50,SARS-CoV-2 USA-WA1/2020 [1]; [5],9.4 µM
same,EC50,"SARS-CoV-2 USA-WA1/2020 [4]; Severe acute respiratory syndrome coronavirus 2, 48 h",0.32 µM
same,Previous target RNA binding,[2],yes
same,CC50 at 2 days,in vitro,> 20 µM
Homochlorcyclizine [reference compound],EC50,SARS-CoV-2 USA-WA1/2020 [1],3.59 µM
same,CC50,Vero E6 cells,> 20 µM
same,Previous target RNA binding,[3]; [12],yes
